PubChem BioAssay (NCI)
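96-well plates; 48 h exposure; 5 concentrations. Endpoints by linear interpolation between flanking doses. Not reached: highest tested concentration assigned. GI50: concentration for 50% inhibition of growth. TGI marks complete inhibition of growth.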

Key:
Assay in all cases: inhibition of tumour cell growth, NCI panel, 48 h
IGROV1 ovarian = system: IGROV1 ovarian
NCI/ADR-RES ovarian = system: NCI/ADR-RES ovarian
SN12C renal = system: SN12C renal
KM12 colon = system: KM12 colon
SR leukemia = system: SR leukemia
UACC-62 melanoma = system: UACC-62 melanoma
PC-3 prostate = system: PC-3 prostate
A549 NSCLC = system: A549 NSCLC
A498 renal = system: A498 renal
MALME-3M melanoma = system: MALME-3M melanoma

Structure (SMILES) | TGI (IGROV1 ovarian) [µM] | TGI (NCI/ADR-RES ovarian) [µM] | TGI (SN12C renal) [µM] | TGI (KM12 colon) [µM] | TGI (SR leukemia) [µM] | TGI (UACC-62 melanoma) [µM] | TGI (PC-3 prostate) [µM] | TGI (A549 NSCLC) [µM] | TGI (A498 renal) [µM] | TGI (MALME-3M melanoma) [µM] | GI50 (IGROV1 ovarian) [µM] | GI50 (NCI/ADR-RES ovarian) [µM] | GI50 (SN12C renal) [µM] | GI50 (KM12 colon) [µM] | GI50 (UACC-62 melanoma) [µM] | GI50 (A498 renal) [µM] | GI50 (MALME-3M melanoma) [µM] | GI50 (A549 NSCLC) [µM] | GI50 (SR leukemia) [µM] | GI50 (PC-3 prostate) [µM]
O=C(Nc1ccc(I)cc1C(=O)NCCO)c1cccs1 | > 100 | > 100 | > 100 | > 100 | > 100 | > 100 | > 100 | > 100 |  |  |  |  |  |  |  |  |  |  |  | 
Cc1ccc2c(c1)nc(N)n[n+]2[O-] | > 100 | > 100 | > 100 | > 100 | > 100 | > 100 | > 100 | > 100 | > 100 |  |  |  |  |  |  |  |  |  |  | 
Cc1cn(C2C=CC(COP(=O)(OCC3=CC(=O)c4ccccc4C3=O)N(C)CCCCCl)O2)c(=O)[nH]c1=O (configuration not stated) | 22.4 | 36.2 | 23.9 | 28.7 | 2.05 | 14.3 | 24.5 | 2.97 |  | 0.982 |  |  |  |  |  |  |  |  |  | 
O=[Se]([O-])c1ccccc1.O=[Se]([O-])c1ccccc1.[OH3+].[OH3+].[Pt+2] | > 42 | 9.89 | 53.3 | 25 |  | 55.6 |  | 58.8 | > 48.8 | 54.2 | 9.02 | 2.8 | 9.71 | 3.41 | 13.1 | 16.5 | 16.5 | 12.2 |  | 
Nc1ccccc1Nc1ccccc1C(=O)[O-].Nc1ccccc1Nc1ccccc1C(=O)[O-].[Cu+2] | > 100 |  | > 100 | > 100 |  | 44.3 |  | > 100 | > 100 | > 100 |  |  |  |  |  |  |  |  |  | 
O=C(NS(=O)(=O)Nc1ccc(Cl)cc1)OCc1ccc(Cl)cc1Cl | 52.8 | 49.9 | 63 | 57.2 | > 100 | 32.3 | > 100 | 52.6 | 38.8 | 47.5 |  |  |  |  |  |  |  |  |  | 
COc1ccc(Nc2[nH]c(C(C)=O)c(N)c2C(=S)Nc2ccccc2)cc1 | > 100 | > 100 | > 100 | > 100 | > 100 | 95.7 |  | > 100 | > 100 | > 100 |  |  |  |  |  |  |  |  |  | 
CCn1cc(C(c2ccc(Cl)cc2)n2ccnc2)c2cc(Br)ccc21 (configuration not stated) | 24.8 | 42.7 | > 100 | 24.3 | 36.8 | 25.2 | 22.8 | 24 | 27 | 32.7 |  |  |  |  |  |  |  |  |  | 
COc1cc2oc(-c3ccc(O)cc3)c(OC3OC(C)C(O)C(O)C3O)c(=O)c2c(O)c1OC (configuration not stated) | > 100 | > 100 | > 100 | > 100 | > 100 | > 100 | > 100 | > 100 | > 100 | > 100 |  |  |  |  |  |  |  |  |  | 
Nc1n[nH]c(=O)[nH]1 | > 100 | > 100 | > 100 | > 100 |  | > 100 |  | > 100 | > 100 | > 100 |  |  |  |  |  |  |  |  |  | 
N#Cc1c(NC(=S)NC(=O)c2ccccc2)nc2c(c1-c1ccccc1)CCC2 | > 100 | > 100 | > 100 | > 100 | > 100 | > 100 | > 100 | > 100 |  | > 100 |  |  |  |  |  |  |  |  |  | 
C=CC(=O)Nc1cccc(-c2nc(SC)nc(Nc3ccccc3OC)c2C#N)c1 |  | 6.99 | 8.15 | 12 | 4.19 | 14.6 | 4.9 | 5.24 | 9.34 | 3.44 |  | 2.46 | 2.5 | 3.02 | 2.81 | 2.8 | 1.54 | 2.08 | 1.49 | 1.94
OCC1CCCC(n2cnc3c(=S)nc[nH]c32)O1 (configuration not stated) | > 100 | > 100 | > 100 | > 100 | > 100 | > 100 | > 100 | > 100 | > 100 | > 100 |  |  |  |  |  |  |  |  |  | 
O=C1CC(=O)N(c2ccccc2)N1/C(=C/c1ccccc1)c1ccccc1 | 43.9 | 61.5 | 44.8 | 66.5 | 40.9 | 37.3 | 47.7 | > 100 |  |  |  |  |  |  |  |  |  |  |  | 
Cc1[nH]c(/C=C2\C(=O)Nc3ccc(S(=O)(=O)Cc4c(Cl)cccc4Cl)cc32)c(C)c1C(=O)N1CCC[C@@H]1CN1CCCC1 | 7.98 | > 24.4 | 2.57 | 4.77 |  |  | > 21.5 |  | 52.8 |  | 3.09 | 2.96 | 1.24 | 0.138 |  | 18.7 |  |  |  | 1.73
O=C(O)c1ccc(NC(c2ccccc2)c2ccc3cccnc3c2O)cc1 (configuration not stated) | > 95.8 | > 45.3 | > 54.1 | > 100 | > 100 | 36.7 | > 96 | > 100 | 78.4 | > 100 |  |  |  |  |  |  |  |  |  | 
CCC(=O)C(c1ccccc1)c1ccccn1 (configuration not stated) | > 100 | > 100 | > 100 | > 100 |  | > 100 | > 100 | > 100 | > 100 | > 100 |  |  |  |  |  |  |  |  |  | 
CC(C)CC(N)C(=O)OCN1C(=O)C2C3C=CC(C2C1=O)C1C2C(=O)N(COC(=O)C(N)CC(C)C)C(=O)C2C31 (configuration not stated) | > 100 |  | > 100 | > 100 |  | > 100 |  | > 100 | > 100 | > 100 |  |  |  |  |  |  |  |  |  | 
COC1OC(=O)[C@H]2O[N+]([O-])=C(C)[C@@H]12 (some centres not stated) | > 100 | > 100 | > 100 | > 100 |  | > 100 |  | > 100 | > 100 | > 100 |  |  |  |  |  |  |  |  |  | 
